Experimental findings from patent publication US11382918B2, “Methods for treating Huntington's Disease” (PTC Therapeutics, Inc., priority 2017, dated 2022) are described below.

As usually defined, the IC50 is the concentration at which inhibition is half-maximal. A low value points to greater potency.

SMILES strings stand for the structures. Where a name gives a salt, the structure may show the parent alone.

This assay concerns Endogenous Huntingtin Protein (HTT). Kind of assay: Endogenous Huntingtin Protein Assay (ELISA-based MSD electrochemiluminescence). In kind it is cell-based. The note with it: Table 1. The method in brief:
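HTT protein in lysates was measured by electrochemiluminescence on the MSD platform. Rabbit monoclonal 5656S followed by SULFO-TAG anti-rabbit antibody served for detection after overnight 4 °C capture with MAB2166 or the polyglutamine-directed MW1 antibody.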
For orientation: In an ELISA, binding on a coated surface is turned into a signal by an enzyme label.
In turn, `CC(C)N1CCC(c2ccc3nc(-c4ccc5nn(C)cc5c4)cc(=O)n3c2)CC1` [compound 608, 2-(2-methyl-2H-indazol-5-yl)-7-[1-(propan-2-yl)piperidin-4-yl]-4H-pyrido[1,2-a]pyrimidin-4-one] returned an IC50 of 500 to 1000 nM.

With `CCN1CCC(c2cc(C)c3nc(-c4cc5c(C)nc(C)cn5n4)cc(=O)n3c2)CC1` [compound 702, 2-(4,6-dimethylpyrazolo[1,5-a]pyrazin-2-yl)-7-(1-ethylpiperidin-4-yl)-9-methyl-4H-pyrido[1,2-a]pyrimidin-4-one], the IC50 was in the range of 1000 to 3000 nM.

For the molecule `CCCc1nc(C)cn2nc(-c3cc(=O)n4cc(N5CCNCC5)ccc4n3)cc12` [compound 723, 2-(6-methyl-4-propylpyrazolo[1,5-a]pyrazin-2-yl)-7-(piperazin-1-yl)-4H-pyrido[1,2-a]pyrimidin-4-one], the IC50 is 3000 to 33000 nM.

Regarding `COc1cnc(-c2cc(=O)n3cc(N4CCNCC4)ccc3n2)cc1OC` [compound 199, 2-(4,5-dimethoxypyridin-2-yl)-7-(piperazin-1-yl)-4H-pyrido[1,2-a]pyrimidin-4-one], the IC50 lay in the range of 3000 to 33000 nM.

`Cc1cn2cc(-c3cc(=O)n4cc(C5CCN(C(C)C)CC5)ncc4n3)ccc2n1` [compound 627, 2-(2-methylimidazo[1,2-a]pyridin-6-yl)-7-[1-(propan-2-yl)piperidin-4-yl]-4H-pyrazino[1,2-a]pyrimidin-4-one] gave an IC50 of 1000 to 3000 nM.

Turning to `Cc1ccc2nc(-c3cc(=O)n4cc(N5CCN(C)CC5)ccc4n3)cn2c1` [compound 836, 2-(6-methylimidazo[1,2-a]pyridin-2-yl)-7-(4-methylpiperazin-1-yl)-4H-pyrido[1,2-a]pyrimidin-4-one], the IC50 is 3000 to 33000 nM.

Consider `O=c1cc(-c2cnc3[nH]ccc3c2)nc2ccc(N3CCNCC3)cn12` [compound 128, 7-(piperazin-1-yl)-2-(1H-pyrrolo[2,3-b]pyridin-5-yl)-4H-pyrido[1,2-a]pyrimidin-4-one], for which the IC50 was 3000 to 33000 nM.

Turning to `Cc1cn2cc(-c3cc(=O)n4cc(N5CCN[C@H](C)C5)ccc4n3)cc(C(F)(F)F)c2n1` [compound 734, 7-[(3R)-3-methylpiperazin-1-yl]-2-[2-methyl-8-(trifluoromethyl)imidazo[1,2-a]pyridin-6-yl]-4H-pyrido[1,2-a]pyrimidin-4-one], the IC50 fell in the range of 3000 to 33000 nM.

The molecule `Cc1cc(C2=CC(C)(C)NC(C)(C)C2)cn2c(=O)cc(-c3ccc4nn(C)cc4c3)nc12` [compound 865, 9-methyl-2-(2-methyl-2H-indazol-5-yl)-7-(2,2,6,6-tetramethyl-1,2,3,6-tetrahydropyridin-4-yl)-4H-pyrido[1,2-a]pyrimidin-4-one] returned an IC50 of 3000 to 33000 nM.

As for `CCN1CCC(c2cn3c(=O)cc(-c4ccc5nc(C)cn5c4)nc3cn2)CC1` [compound 580, 7-(1-ethylpiperidin-4-yl)-2-(2-methylimidazo[1,2-a]pyridin-6-yl)-4H-pyrazino[1,2-a]pyrimidin-4-one], the IC50 fell in the range of 3000 to 33000 nM.

`Cc1cn2nc(-c3cc(=O)n4cc(N5CC[C@@H](CN(C)C)C5)ccc4n3)cc2c(C)n1` [compound 770, 7-{(3S)-3-[(dimethylamino)methyl]pyrrolidin-1-yl}-2-(4,6-dimethylpyrazolo[1,5-a]pyrazin-2-yl)-4H-pyrido[1,2-a]pyrimidin-4-one]: the IC50 is 3000 to 33000 nM.

The molecule `CCc1cn2cc(-c3cc(=O)n4cc(N5CCNCC5)ccc4n3)ccc2n1` [compound 124, 2-(2-ethylimidazo[1,2-a]pyridin-6-yl)-7-(piperazin-1-yl)-4H-pyrido[1,2-a]pyrimidin-4-one] showed an IC50 of 3000 to 33000 nM.

In turn, `Cc1cn2nc(-c3cc(=O)n4cc(N5CCNCC5)ccc4n3)cc2c(C2CC2)n1` [compound 683, 2-(4-cyclopropyl-6-methylpyrazolo[1,5-a]pyrazin-2-yl)-7-(piperazin-1-yl)-4H-pyrido[1,2-a]pyrimidin-4-one] registered an IC50 of 3000 to 33000 nM.

Molecule `Cc1cn2nc(-c3cc(=O)n4cc(N5CCNCC5)ccc4n3)cc2cn1` [compound 420, 2-(6-methylpyrazolo[1,5-a]pyrazin-2-yl)-7-(piperazin-1-yl)-4H-pyrido[1,2-a]pyrimidin-4-one] returned an IC50 of 1000 to 3000 nM.

Molecule `CCN1CC=C(c2ccc3nc(-c4ccc5c(cnn5C)c4)cc(=O)n3c2)CC1` [compound 463, 7-(1-ethyl-1,2,3,6-tetrahydropyridin-4-yl)-2-(1-methyl-1H-indazol-5-yl)-4H-pyrido[1,2-a]pyrimidin-4-one] registered an IC50 of 3000 to 33000 nM.

Turning to `Cc1cn2nc(-c3cc(=O)n4cc(C5CCNCC5)ncc4n3)cc2c(C)n1` [compound 502, 2-(4,6-dimethylpyrazolo[1,5-a]pyrazin-2-yl)-7-(piperidin-4-yl)-4H-pyrazino[1,2-a]pyrimidin-4-one], the IC50 is less than 100 nM.

As to `Cc1cn2cc(-c3cc(=O)n4cc(C5CCN(CCO)CC5)ncc4n3)cc(C)c2n1` [compound 594, 2-(2,8-dimethylimidazo[1,2-a]pyridin-6-yl)-7-[1-(2-hydroxyethyl)piperidin-4-yl]-4H-pyrazino[1,2-a]pyrimidin-4-one], the IC50 was in the range of 1000 to 3000 nM.

Molecule `Cc1cn2cc(-c3cc(=O)n4cc(C5CCN(C)CC5)ncc4n3)cc(C)c2n1` [compound 592, 2-(2,8-dimethylimidazo[1,2-a]pyridin-6-yl)-7-(1-methylpiperidin-4-yl)-4H-pyrazino[1,2-a]pyrimidin-4-one] displayed an IC50 of 3000 to 33000 nM.

Regarding `Cc1cc(C2CC(C)(C)NC(C)(C)C2)cn2c(=O)cc(-c3ccc4nn(C)cc4c3)nc12` [compound 867, 9-methyl-2-(2-methyl-2H-indazol-5-yl)-7-(2,2,6,6-tetramethylpiperidin-4-yl)-4H-pyrido[1,2-a]pyrimidin-4-one], the IC50 lay in the range of 3000 to 33000 nM.

In turn, `CCN1CCN(c2cn3c(=O)cc(-c4ccc5nn(C)cc5c4)nc3cn2)CC1` [compound 590, 7-(4-ethylpiperazin-1-yl)-2-(2-methyl-2H-indazol-5-yl)-4H-pyrazino[1,2-a]pyrimidin-4-one] yielded an IC50 of 3000 to 33000 nM.

The molecule `Cc1cc2cc(-c3cc(=O)n4cc(N5CCNCC5)ccc4n3)ccn2n1` [compound 859, 2-(2-methylpyrazolo[1,5-a]pyridin-5-yl)-7-(piperazin-1-yl)-4H-pyrido[1,2-a]pyrimidin-4-one hydrochloride (1:2)] showed an IC50 of 1000 to 3000 nM.

`CCN1CCN(c2ccc3nc(-c4cc(C)c5c(cnn5C)c4)cc(=O)n3c2)CC1` [compound 845, 2-(1,7-dimethyl-1H-indazol-5-yl)-7-(4-ethylpiperazin-1-yl)-4H-pyrido[1,2-a]pyrimidin-4-one] yielded an IC50 of 3000 to 33000 nM.

The molecule `Cc1cn2nc(-c3cc(=O)n4cc(N5CCC(N(C)CCO)CC5)cc(C)c4n3)cc2c(C)n1` [compound 582, 2-(4,6-dimethylpyrazolo[1,5-a]pyrazin-2-yl)-7-{4-[(2-hydroxyethyl)(methyl)amino]piperidin-1-yl}-9-methyl-4H-pyrido[1,2-a]pyrimidin-4-one] showed an IC50 of 3000 to 33000 nM.

`CCN1CC=C(c2cn3c(=O)cc(-c4ccc5nc(C)oc5c4)nc3cn2)CC1` [compound 423, 7-(1-ethyl-1,2,3,6-tetrahydropyridin-4-yl)-2-(2-methyl-1,3-benzoxazol-6-yl)-4H-pyrazino[1,2-a]pyrimidin-4-one] had an IC50 of 3000 to 33000 nM.

`Cn1cc2cc(-c3cc(=O)n4cc(C5=CCNCC5)ccc4n3)ccc2n1` [compound 474, 2-(2-methyl-2H-indazol-5-yl)-7-(1,2,3,6-tetrahydropyridin-4-yl)-4H-pyrido[1,2-a]pyrimidin-4-one] yielded an IC50 of 500 to 1000 nM.

`CCc1nc(C)cn2nc(-c3cc(=O)n4cc(N(C)C5CC(C)(C)NC(C)(C)C5)cc(C)c4n3)cc12` [compound 851, 2-(4-ethyl-6-methylpyrazolo[1,5-a]pyrazin-2-yl)-9-methyl-7-[methyl(2,2,6,6-tetramethylpiperidin-4-yl)amino]-4H-pyrido[1,2-a]pyrimidin-4-one] displayed an IC50 of 3000 to 33000 nM.

The molecule `Cc1cn2nc(-c3cc(=O)n4cc(N5C[C@@H](C)N(C)[C@@H](C)C5)ccc4n3)cc2c(C)n1` [compound 259, 2-(4,6-dimethylpyrazolo[1,5-a]pyrazin-2-yl)-7-[(3R,5S)-3,4,5-trimethylpiperazin-1-yl]-4H-pyrido[1,2-a]pyrimidin-4-one] displayed an IC50 of 3000 to 33000 nM.

For `Cc1cn2ccc(-c3cc(=O)n4cc(N5CCN(C)CC5)ccc4n3)cc2n1` [compound 557, 2-(2-methylimidazo[1,2-a]pyridin-7-yl)-7-(4-methylpiperazin-1-yl)-4H-pyrido[1,2-a]pyrimidin-4-one], the 50% inhibitory concentration (IC50) lay within 3000 to 33000 nM.

In turn, `Cc1cn2cc(-c3ccc4nc(C5CCN(C(C)C)CC5)cc(=O)n4c3)ccc2n1` [compound 461, 7-(2-methylimidazo[1,2-a]pyridin-6-yl)-2-[1-(propan-2-yl)piperidin-4-yl]-4H-pyrido[1,2-a]pyrimidin-4-one] returned an IC50 of 3000 to 33000 nM.

For the molecule `Cc1cn2nc(-c3cc(=O)n4cc(N5CCC(NCCO)CC5)cc(C)c4n3)cc2c(C)n1` [compound 609, 2-(4,6-dimethylpyrazolo[1,5-a]pyrazin-2-yl)-7-{4-[(2-hydroxyethyl)amino]piperidin-1-yl}-9-methyl-4H-pyrido[1,2-a]pyrimidin-4-one], the IC50 was in the range of 3000 to 33000 nM.

`COc1ccc(-c2cc(=O)n3cc(N4CCNCC4)ccc3n2)cn1` [compound 88, 2-(6-methoxypyridin-3-yl)-7-(piperazin-1-yl)-4H-pyrido[1,2-a]pyrimidin-4-one] returned an IC50 of 3000 to 33000 nM.

In turn, `C[C@@H]1CN(c2ccc3nc(-c4ccc5c(cnn5C)c4)cc(=O)n3c2)CCN1` [compound 545, 2-(1-methyl-1H-indazol-5-yl)-7-[(3R)-3-methylpiperazin-1-yl]-4H-pyrido[1,2-a]pyrimidin-4-one] registered an IC50 of 3000 to 33000 nM.

Regarding `CCN1CCC(c2cn3c(=O)cc(-c4cc(F)c5nn(C)cc5c4)nc3c(C)n2)CC1` [compound 872, 7-(1-ethylpiperidin-4-yl)-2-(7-fluoro-2-methyl-2H-indazol-5-yl)-9-methyl-4H-pyrazino[1,2-a]pyrimidin-4-one], the IC50 was less than 100 nM.

Molecule `CN1CCN(c2cn3c(=O)cc(-c4ccc5nn(C)cc5c4)nc3cn2)CC1` [compound 589, 2-(2-methyl-2H-indazol-5-yl)-7-(4-methylpiperazin-1-yl)-4H-pyrazino[1,2-a]pyrimidin-4-one] yielded an IC50 of 3000 to 33000 nM.
